Laboratory results: ChEMBL document CHEMBL5331114, “Discovery of Pyxinol Amide Derivatives Bearing Amino Acid Residues as Nonsubstrate Allosteric Inhibitors of P-Glycoprotein-Mediated Multidrug Resistance” (J Med Chem, 2023)
Active and inactive are the calls of the source. The rule behind the calls is not given here.

Legend:
[1] = target: Multidrug resistance-associated protein 1 (Homo sapiens, UniProt P33527); experiment: Binding affinity to ABCC1 in human KBV cells assessed as stabilization of ABCC1 at 50 uM incubated for 26 hrs by western blot based cellular thermal shift assay; format: cell-based
Sequence of Multidrug resistance-associated protein 1 (P33527 whole entry): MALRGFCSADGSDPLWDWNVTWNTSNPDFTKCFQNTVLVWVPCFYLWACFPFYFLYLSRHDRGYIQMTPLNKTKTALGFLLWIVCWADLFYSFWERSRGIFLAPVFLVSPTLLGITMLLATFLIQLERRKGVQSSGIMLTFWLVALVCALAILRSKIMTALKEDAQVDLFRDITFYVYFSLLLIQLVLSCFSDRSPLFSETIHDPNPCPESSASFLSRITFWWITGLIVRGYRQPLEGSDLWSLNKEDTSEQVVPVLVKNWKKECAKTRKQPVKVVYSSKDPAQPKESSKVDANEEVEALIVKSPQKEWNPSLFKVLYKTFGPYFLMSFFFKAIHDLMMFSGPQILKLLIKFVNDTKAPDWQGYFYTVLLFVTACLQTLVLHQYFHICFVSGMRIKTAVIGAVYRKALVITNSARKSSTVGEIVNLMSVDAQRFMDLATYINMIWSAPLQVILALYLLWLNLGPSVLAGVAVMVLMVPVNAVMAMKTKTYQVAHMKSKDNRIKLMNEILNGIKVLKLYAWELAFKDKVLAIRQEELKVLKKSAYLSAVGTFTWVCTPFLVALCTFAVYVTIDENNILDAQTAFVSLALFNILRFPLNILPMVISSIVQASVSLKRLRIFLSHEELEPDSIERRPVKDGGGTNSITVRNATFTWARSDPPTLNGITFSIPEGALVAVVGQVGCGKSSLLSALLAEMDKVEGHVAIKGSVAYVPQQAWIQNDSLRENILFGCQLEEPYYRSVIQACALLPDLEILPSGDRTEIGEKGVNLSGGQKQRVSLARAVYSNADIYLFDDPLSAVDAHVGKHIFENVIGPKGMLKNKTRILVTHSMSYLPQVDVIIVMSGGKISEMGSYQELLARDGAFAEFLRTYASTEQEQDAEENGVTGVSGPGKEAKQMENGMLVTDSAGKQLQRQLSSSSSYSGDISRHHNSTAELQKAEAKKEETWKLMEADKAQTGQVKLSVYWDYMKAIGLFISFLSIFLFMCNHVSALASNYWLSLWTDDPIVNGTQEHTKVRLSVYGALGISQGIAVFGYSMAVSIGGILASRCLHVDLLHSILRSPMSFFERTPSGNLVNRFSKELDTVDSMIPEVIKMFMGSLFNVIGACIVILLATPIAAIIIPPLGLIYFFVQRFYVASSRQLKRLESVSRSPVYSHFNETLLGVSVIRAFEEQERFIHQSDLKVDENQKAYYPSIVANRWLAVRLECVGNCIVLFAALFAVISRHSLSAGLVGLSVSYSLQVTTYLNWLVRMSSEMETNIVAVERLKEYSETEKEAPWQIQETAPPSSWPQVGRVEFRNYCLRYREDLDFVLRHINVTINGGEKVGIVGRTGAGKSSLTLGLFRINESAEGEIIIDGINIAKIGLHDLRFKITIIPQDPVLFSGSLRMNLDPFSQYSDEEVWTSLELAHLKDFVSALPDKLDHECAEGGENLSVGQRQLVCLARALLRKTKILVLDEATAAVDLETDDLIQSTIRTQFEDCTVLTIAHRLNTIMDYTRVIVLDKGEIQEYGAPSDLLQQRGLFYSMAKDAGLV

[2] = Induction of Ptx-mediated cell cycle arrest in human KBV cells assessed as accumulation of cells at G2-M phase at 10 uM incubated for 24 hrs in presence of paclitaxel by flow cytometry analysis (Rvb =25.34 +/- 0.92%); format: functional
[3] = Induction of Ptx-mediated cell cycle arrest in human KBV cells assessed as accumulation of cells at G1-G0 phase at 5 uM incubated for 24 hrs in presence of paclitaxel by flow cytometry analysis (Rvb =57.76 +/- 0.78%); format: functional
[4] = target: T1, ATP-dependent translocase ABCB1 (Homo sapiens, UniProt P08183); experiment: Negative allosteric modulator activity at P-glycoprotein mediated Rhodamine-123 efflux in human KBV cells assessed as increase in intracellular Rhodamine-123 accumulation incubated for 2 hrs in presence of Ptx-C by flow cytometry analysis; format: cell-based
T1 sequence (P08183 whole entry): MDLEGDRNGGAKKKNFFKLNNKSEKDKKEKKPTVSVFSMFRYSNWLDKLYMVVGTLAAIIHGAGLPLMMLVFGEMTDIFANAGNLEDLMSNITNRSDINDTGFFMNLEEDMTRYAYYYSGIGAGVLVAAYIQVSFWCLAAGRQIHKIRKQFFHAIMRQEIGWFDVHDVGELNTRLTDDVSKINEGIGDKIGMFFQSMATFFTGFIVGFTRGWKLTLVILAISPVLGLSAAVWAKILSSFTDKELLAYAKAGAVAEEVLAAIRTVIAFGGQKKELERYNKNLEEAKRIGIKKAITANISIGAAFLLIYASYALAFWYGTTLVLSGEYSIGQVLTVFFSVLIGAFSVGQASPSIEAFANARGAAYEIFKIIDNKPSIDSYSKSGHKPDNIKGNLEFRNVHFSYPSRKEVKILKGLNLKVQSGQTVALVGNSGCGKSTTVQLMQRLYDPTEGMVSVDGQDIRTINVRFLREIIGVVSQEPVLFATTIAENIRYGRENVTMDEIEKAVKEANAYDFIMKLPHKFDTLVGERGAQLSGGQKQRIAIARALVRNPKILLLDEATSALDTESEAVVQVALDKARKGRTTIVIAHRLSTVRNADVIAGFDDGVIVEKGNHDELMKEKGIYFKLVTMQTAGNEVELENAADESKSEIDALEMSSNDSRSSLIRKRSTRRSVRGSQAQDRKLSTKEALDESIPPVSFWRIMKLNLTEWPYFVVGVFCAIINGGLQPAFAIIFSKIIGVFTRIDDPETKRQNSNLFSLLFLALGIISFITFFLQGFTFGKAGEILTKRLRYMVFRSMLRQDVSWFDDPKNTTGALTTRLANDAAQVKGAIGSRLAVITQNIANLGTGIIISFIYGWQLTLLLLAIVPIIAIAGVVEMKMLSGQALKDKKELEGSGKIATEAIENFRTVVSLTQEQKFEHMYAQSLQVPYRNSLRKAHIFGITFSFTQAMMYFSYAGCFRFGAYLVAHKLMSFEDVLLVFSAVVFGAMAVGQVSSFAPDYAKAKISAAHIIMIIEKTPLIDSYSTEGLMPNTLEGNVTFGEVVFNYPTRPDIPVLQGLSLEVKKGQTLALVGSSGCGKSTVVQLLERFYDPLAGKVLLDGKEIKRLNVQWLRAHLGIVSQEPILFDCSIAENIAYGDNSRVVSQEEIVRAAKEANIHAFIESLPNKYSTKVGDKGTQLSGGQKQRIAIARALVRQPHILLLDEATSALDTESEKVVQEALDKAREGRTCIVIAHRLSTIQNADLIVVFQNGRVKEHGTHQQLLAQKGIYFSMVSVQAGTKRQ

[5] = target: T1, ATP-dependent translocase ABCB1; experiment: Negative allosteric modulator activity at P-glycoprotein mediated Rhodamine-123 efflux in human KBV cells assessed as increase in intracellular Rhodamine-123 accumulation incubated for 2 hrs by flow cytometry analysis; format: cell-based
[6] = tested on: KBV; experiment: Chemo-sensitizing activity against Ptx-resistance human KBV cells xenografted in BALB/c mouse assessed as inhibition of tumor growth at 20 mg/kg,ip measured after 23 days; format: functional, organism-based; conditions: time 23.0 day
[7] = Induction of Ptx-mediated cell cycle arrest in human KBV cells assessed as accumulation of cells at G1-G0 phase at 10 uM incubated for 24 hrs in presence of paclitaxel by flow cytometry analysis (Rvb =57.76 +/- 0.78%); format: functional
[8] = target: P-gp (ABCB1) ATPase (Homo sapiens, UniProt P08183); experiment: Negative allosteric modulator activity at human P-gp ATP synthase hydrolytic activity assessed as inhibition of Vrp-stimulated Pgp-ATPase activity incubated for 60 mins in presence of ATP by Glo-luminescence based microplate reader assay relative to DMSO; conditions: probe Vrp (stimulator of the ATPase activity)
Sequence of P-gp (ABCB1) ATPase (P08183 whole entry): as above

CC(C)(O)[C@H]1CC[C@@](C)([C@H]2CC[C@]3(C)[C@@H]2[C@H](O)C[C@@H]2[C@@]4(C)CC[C@H](NC(=O)[C@@H]5CCCN5)C(C)(C)[C@@H]4CC[C@]23C)O1
Activity [1]: Not Active
Activity [2]: 42.21%
Activity [3]: 45.93%
Activity [4]: Dose-Dependent Effect
Activity [5]: Dose-Dependent Effect
Activity [6]: inactive
Activity [7]: 36.65%
inhibition at 1 h [8]: 40%
